# What was measured:
# [1] = biological target: T1, serotonine transporter (SERT) receptor (Homo sapiens, UniProt P31645); experiment: Binding assay SERT (h), [3H]imipramine, CHO cells; conditions: read-out: SERT [%]
# T1 construct: expressed in transfected cells; host or cells: CHO cells
# Experimental: (§1) The specific ligand binding to the receptors is defined as the difference between the total binding and the nonspecific binding determined in the presence of an excess of so unlabelled ligand.
# (§2) The specific Ligand binding to the receptor is defined as the difference between total and non-specific binding determined in the presence of an excess of unlabelled ligand. The compounds were tested at a concentration of 1×10^−6 M, and scintillation counting was the method of detection of ligand binding.
# adrenergic α1 receptor = experiment: Binding assay α1 (non-selective), [3H]prazosin, rat cerebral cortex; conditions: percent inhibition of control specific binding; compounds tested at 1×10^−6 M
# Experimental: as §1, §2
# dopaminergic D3 receptor = dopaminergic D3 receptor (Homo sapiens, UniProt P35462); experiment: Binding assay D3 (h), [3H]methyl-spiperone, CHO cells; parameters: expressed in transfected cells; host or cells: CHO cells; conditions: read-out: D3 [%]
# Experimental: as §1, §2
# [2] = biological target: serotoninergic 5-HT6 receptor (Homo sapiens, UniProt P50406); experiment: Binding assay 5-HT6 (h), [3H]LSD, CHO cells; parameters: expressed in transfected cells; host or cells: CHO cells; conditions: read-out: 5-HT6
# Experimental: as §1, §2
# [3] = biological target: serotoninergic 5-HT7 receptor (Homo sapiens, UniProt P34969); experiment: Binding assay 5-HT7 (h), [3H]LSD, CHO cells; parameters: expressed in transfected cells; host or cells: CHO cells; conditions: read-out: 5-HT7
# Experimental: as §1, §2
# dopaminergic D2 receptor = dopaminergic D2 receptor (Homo sapiens, UniProt P14416); experiment: Binding assay D2S (h), [3H]methyl-spiperone, HEK-293 cells; parameters: expressed in transfected cells; host or cells: HEK-293 cells; conditions: read-out: D2 [%]
# Experimental: as §1, §2
# [4] = biological target: T2, serotoninergic 5-HT1A receptor (Homo sapiens, UniProt P08908); experiment: Binding assay 5-HT1A (h), [3H]8-OH-DPAT, HEK-293 cells; parameters: expressed in transfected cells; host or cells: HEK-293 cells; conditions: read-out: 5-HT1A
# T2 sequence (P08908 1-422): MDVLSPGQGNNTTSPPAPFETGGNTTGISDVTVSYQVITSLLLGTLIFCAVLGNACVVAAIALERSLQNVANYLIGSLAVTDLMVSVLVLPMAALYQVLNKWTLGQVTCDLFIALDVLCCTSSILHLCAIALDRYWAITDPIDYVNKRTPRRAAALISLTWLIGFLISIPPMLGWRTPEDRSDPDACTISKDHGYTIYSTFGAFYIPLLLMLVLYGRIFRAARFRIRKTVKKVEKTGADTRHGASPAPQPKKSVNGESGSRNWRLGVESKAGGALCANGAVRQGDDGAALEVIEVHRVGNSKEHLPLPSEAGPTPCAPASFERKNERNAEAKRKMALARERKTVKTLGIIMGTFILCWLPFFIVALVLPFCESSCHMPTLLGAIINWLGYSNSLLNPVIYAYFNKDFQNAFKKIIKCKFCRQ
# Experimental: as §1, §2
# [5] = biological target: serotoninergic 5-HT2A receptor (Homo sapiens, UniProt P28223); experiment: Binding assay 5-HT2A (h), [3H]ketanserin, HEK-293 cells; parameters: expressed in transfected cells; host or cells: HEK-293 cells; conditions: read-out: 5-HT2A
# Experimental: as §1, §2
# T1 sequence (P31645 whole entry): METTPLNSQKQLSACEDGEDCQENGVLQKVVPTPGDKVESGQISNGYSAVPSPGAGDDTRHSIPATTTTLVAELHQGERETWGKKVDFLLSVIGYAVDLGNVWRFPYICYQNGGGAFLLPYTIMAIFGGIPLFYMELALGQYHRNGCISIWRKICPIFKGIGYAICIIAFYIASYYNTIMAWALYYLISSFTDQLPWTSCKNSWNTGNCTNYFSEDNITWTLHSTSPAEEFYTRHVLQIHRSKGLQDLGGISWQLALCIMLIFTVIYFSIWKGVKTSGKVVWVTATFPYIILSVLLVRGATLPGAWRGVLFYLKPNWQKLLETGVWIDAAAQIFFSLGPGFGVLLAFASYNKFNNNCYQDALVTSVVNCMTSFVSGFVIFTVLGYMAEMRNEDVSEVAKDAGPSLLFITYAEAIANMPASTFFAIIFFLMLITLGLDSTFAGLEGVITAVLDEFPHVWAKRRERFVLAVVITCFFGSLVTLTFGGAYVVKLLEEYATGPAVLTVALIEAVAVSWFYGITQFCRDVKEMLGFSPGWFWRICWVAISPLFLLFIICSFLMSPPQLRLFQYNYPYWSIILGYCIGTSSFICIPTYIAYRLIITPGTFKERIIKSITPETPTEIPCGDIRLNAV
# serotoninergic 5-HT2A receptor, sequence (P28223 whole entry): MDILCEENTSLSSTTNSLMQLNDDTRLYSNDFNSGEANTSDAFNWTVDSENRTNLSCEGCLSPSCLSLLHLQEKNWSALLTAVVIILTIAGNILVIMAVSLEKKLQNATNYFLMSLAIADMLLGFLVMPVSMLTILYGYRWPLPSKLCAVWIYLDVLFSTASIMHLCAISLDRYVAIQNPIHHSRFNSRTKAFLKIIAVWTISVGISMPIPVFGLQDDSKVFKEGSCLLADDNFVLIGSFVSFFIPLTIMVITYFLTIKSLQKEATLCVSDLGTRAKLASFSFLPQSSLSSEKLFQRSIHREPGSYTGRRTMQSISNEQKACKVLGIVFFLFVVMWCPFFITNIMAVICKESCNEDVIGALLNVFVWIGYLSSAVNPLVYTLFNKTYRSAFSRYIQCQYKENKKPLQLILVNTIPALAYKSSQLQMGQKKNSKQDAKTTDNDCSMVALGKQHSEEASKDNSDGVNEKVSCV
# dopaminergic D2 receptor, sequence (P14416 1-414 isoform P14416-2): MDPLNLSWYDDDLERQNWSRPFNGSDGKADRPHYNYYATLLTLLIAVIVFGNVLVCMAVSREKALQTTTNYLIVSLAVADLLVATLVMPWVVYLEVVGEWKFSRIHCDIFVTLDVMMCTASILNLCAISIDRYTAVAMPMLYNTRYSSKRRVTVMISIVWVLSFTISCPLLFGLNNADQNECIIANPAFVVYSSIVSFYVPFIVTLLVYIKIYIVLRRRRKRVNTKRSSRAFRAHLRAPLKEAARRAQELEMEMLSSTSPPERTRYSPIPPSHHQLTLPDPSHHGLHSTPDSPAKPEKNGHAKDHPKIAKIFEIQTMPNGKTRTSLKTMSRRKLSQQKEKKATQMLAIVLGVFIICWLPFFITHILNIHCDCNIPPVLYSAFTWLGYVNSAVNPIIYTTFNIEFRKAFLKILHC
# serotoninergic 5-HT6 receptor, sequence (P50406 whole entry): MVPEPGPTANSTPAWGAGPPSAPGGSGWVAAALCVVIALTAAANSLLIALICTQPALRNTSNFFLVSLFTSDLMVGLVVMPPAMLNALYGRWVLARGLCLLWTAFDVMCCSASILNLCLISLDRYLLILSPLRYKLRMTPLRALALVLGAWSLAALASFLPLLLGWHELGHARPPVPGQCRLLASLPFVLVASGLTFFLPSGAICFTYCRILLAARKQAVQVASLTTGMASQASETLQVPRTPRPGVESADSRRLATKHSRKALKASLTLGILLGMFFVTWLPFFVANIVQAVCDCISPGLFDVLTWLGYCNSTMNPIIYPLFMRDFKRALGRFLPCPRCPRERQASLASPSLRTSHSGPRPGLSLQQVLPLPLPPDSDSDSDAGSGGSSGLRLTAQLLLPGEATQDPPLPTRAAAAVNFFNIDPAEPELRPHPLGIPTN
# dopaminergic D3 receptor, sequence (P35462 whole entry): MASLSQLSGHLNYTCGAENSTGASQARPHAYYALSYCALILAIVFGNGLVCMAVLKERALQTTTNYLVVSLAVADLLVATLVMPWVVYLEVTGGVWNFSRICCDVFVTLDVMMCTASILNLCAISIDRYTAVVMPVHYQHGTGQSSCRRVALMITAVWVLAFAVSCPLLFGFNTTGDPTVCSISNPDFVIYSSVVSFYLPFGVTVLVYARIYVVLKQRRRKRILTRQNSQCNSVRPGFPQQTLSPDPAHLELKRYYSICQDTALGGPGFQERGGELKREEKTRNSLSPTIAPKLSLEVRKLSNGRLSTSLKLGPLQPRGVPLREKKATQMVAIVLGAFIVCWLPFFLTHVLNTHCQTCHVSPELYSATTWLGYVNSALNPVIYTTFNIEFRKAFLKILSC
# serotoninergic 5-HT7 receptor, sequence (P34969 whole entry): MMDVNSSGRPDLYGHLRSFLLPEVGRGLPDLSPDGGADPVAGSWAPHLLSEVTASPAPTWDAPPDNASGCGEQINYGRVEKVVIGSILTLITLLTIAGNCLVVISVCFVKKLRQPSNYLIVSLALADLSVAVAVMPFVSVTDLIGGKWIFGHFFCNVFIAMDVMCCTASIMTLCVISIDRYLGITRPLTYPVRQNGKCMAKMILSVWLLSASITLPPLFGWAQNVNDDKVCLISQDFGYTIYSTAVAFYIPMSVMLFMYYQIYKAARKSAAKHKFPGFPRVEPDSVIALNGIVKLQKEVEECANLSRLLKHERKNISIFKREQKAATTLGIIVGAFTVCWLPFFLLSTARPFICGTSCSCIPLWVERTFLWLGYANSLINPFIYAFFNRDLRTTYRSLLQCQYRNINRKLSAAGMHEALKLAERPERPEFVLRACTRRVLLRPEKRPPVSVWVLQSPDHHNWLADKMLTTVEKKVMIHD
Structure (SMILES),inhibition at 1 µM [1],α1 [%] (adrenergic α1 receptor),inhibition at 1 µM (dopaminergic D3 receptor),inhibition at 1 µM [2],inhibition at 1 µM [3],inhibition at 1 µM (dopaminergic D2 receptor),inhibition at 1 µM [4],inhibition at 1 µM [5]
"O=S(=O)(NCCCCN1CCC(c2noc3cc(F)ccc23)CC1)c1ccc2c(c1)CCO2 [Compound 317, N-[4-[4-(6-Fluoro-1,2-benzoxazol-3-yl)piperidin-1-yl]butyl]-2,3-dihydrobenzofuran-5-sulphonamide]",-17%,99%,97%,78%,89%,105%,45%,98%
"O=S(=O)(NCCCN1CCN(c2nsc3ccccc23)CC1)c1cccc(F)c1 [Compound 72, N-[3-[4-(1,2-Benzothiazol-3-yl)piperazin-1-yl]propyl]-3-fluorobenzenesulphonamide]",44%,93%,95%,78%,101%,99%,95%,94%
"O=S(=O)(NCCCN1CCN(c2cccc3c2OCCO3)CC1)c1ccc2ccccc2c1 [Compound 406, N-[3-[4-(2,3-Dihydro-1,4-benzodioxin-5-yl)piperazin-1-yl]propyl]naphthalene-2-sulphonamide]",10%,77%,54%,54%,92%,59%,99%,28%
"O=c1[nH]c2ccc(S(=O)(=O)NCCCN3CCC(c4noc5cc(F)ccc45)CC3)cc2o1 [Compound 353, N-[3-[4-(6-Fluoro-1,2-benzoxazol-3-yl)piperidin-1-yl]propyl]-2-oxo-3H-1,3-benzoxazole-6-sulphonamide]",-1%,103%,97%,58%,83%,91%,48%,101%
"O=S(=O)(NCCCCN1CCN(c2nsc3ccccc23)CC1)c1ccc(Cl)c(Cl)c1 [Compound 228, N-[4-[4-(1,2-Benzothiazol-3-yl)piperazin-1-yl]butyl]-3,4-dichlorobenzenesulphonamide]",16%,92%,92%,87%,98%,103%,81%,91%
"O=S(=O)(NCCCCN1CCN(c2nsc3ccccc23)CC1)c1cccc(F)c1 [Compound 71, N-[4-[4-(1,2-Benzothiazol-3-yl)piperazin-1-yl]butyl]-3-fluorobenzenesulphonamide]",41%,99%,91%,76%,99%,103%,89%,94%
"O=S(=O)(NCCCCN1CCN(c2noc3ccccc23)CC1)c1cnc2ccccn12 [Compound 293, N-[4-[4-(1,2-Benzoxazol-3-yl)piperazin-1-yl]butyl]imidazo[1,2-a]pyridine-3-sulphonamide]",3%,98%,65%,44%,93%,85%,57%,89%
"Cc1cccc(S(=O)(=O)NCCCN2CCN(c3cccc4[nH]c(=O)[nH]c34)CC2)c1 [Compound 426, 3-Methyl-N-[3-[4-(2-oxo-1,3-dihydrobenzimidazol-4-yl)piperazin-1-yl]propyl]benzenesulphonamide]",-18%,67%,94%,-4%,85%,28%,79%,20%
"O=S(=O)(NCCCN1CCN(c2cccc3c2OCCO3)CC1)c1ccc(-c2ccccc2)cc1 [Compound 415, N-[3-[4-(2,3-Dihydro-1,4-benzodioxin-5-yl)piperazin-1-yl]propyl]-4-phenylbenzenesulphonamide]",-5%,78%,76%,15%,92%,58%,96%,25%
"O=S(=O)(NCCCCN1CCN(c2nsc3ccccc23)CC1)c1ccc(Cl)s1 [Compound 195, N-[4-[4-(1,2-Benzothiazol-3-yl)piperazin-1-yl]butyl]-5-chloro-thiophene-2-sulphonamide]",-3%,96%,89%,60%,98%,99%,89%,91%
"O=S(=O)(NCCCCN1CCN(c2noc3ccccc23)CC1)c1cccc(F)c1 [Compound 87, N-[4-[4-(1,2-Benzoxazol-3-yl)piperazin-1-yl]butyl]-3-fluorobenzenesulphonamide]",2%,98%,77%,67%,90%,87%,41%,89%
"O=S(=O)(NCCCCN1CCN(c2nsc3ccccc23)CC1)c1ccc2c(c1)CCO2 [Compound 242, N-[4-[4-(1,2-Benzothiazol-3-yl)piperazin-1-yl]butyl]-2,3-dihydrobenzofuran-5-sulphonamide]",12%,98%,89%,73%,101%,105%,92%,94%
"Cc1[nH]c2ccc(Cl)cc2c1C1=CCN(CCNS(=O)(=O)c2cccc(O)c2)CC1 [Compound 453, N-[2-[4-(5-Chloro-2-methyl-1H-indol-3-yl)-3,6-dihydro-2H-pyridin-1-yl]ethyl]-3-hydroxybenzenesulphonamide]",23%,23%,56%,107%,76%,48%,,
"Cc1[nH]c2ccc(Cl)cc2c1C1=CCN(CCNS(=O)(=O)c2ccc(Cl)cc2)CC1 [Compound 451, 4-Chloro-N-[2-[4-(5-chloro-2-methyl-1H-indol-3-yl)-3,6-dihydro-2H-pyridin-1-yl]ethyl]-benzensulphonamide]",32%,−4%,30%,97%,25%,46%,,
"Cc1[nH]c2ccc(Cl)cc2c1C1=CCN(CCNS(=O)(=O)c2cccc(F)c2)CC1 [Compound 450, N-[2-[4-(5-Chloro-2-methyl-1H-indol-3-yl)-3,6-dihydro-2H-pyridin-1-yl]ethyl]-3-fluorobenzenesulphonamide]",54%,−1%,39%,96%,50%,15%,,
